The structures appear in SMILES notation. Where two headings read alike, the source gives them in different places.

The record followed here is patent US20250034186A1, “ANTIVIRAL COMPOUNDS” (priority 2020, published 2025).

The test system of one data set is RSV A2. Description: RSV NHBE EC50, RSV A2 antiviral assay. The note with it: for EC50: human respiratory syncytial virus, 96 h, RSV A2 in NHBE cells, 4 days. Type of data set: cell-based. The method, then:
Normal human bronchial epithelial (NHBE) cells were purchased from Lonza (Walkersville, MD, Cat #CC-2540) and cultured in Bronchial Epithelial Growth Media (BEGM) (Lonza, Walkersville, MD, Cat #CC-3170). The cells were passaged 1-2 times per week to maintain <80% confluency. The NHBE cells were discarded after 6 passages in culture.
To conduct the RSV A2 antiviral assay, NHBE cells were plated in 96-well plates at a density of 7,500 cells per well in BEGM and allowed to attach overnight at 37° C. Following attachment, 100 μL of cell culture media was removed and 3-fold serially diluted compound was added using a Hewlett-Packard D300 Digital Dispenser. The final concentration of DMSO was normalized to 0.05%. Following compound addition, the NHBE cells were infected by the addition of 100 μL of RSV A2 at a titer of 1×10^4.5 tissue culture infectious doses/mL in BEGM and then incubated at 37° C. for 4 days. The NHBE cells were then allowed to equilibrate to 25° C. and cell viability was determined by removing 100 μL of culture medium and adding 100 μL of Cell-Titer Glo viability reagent. The mixtures were incubated for 10 minutes at 25° C., and the luminescence signal was quantified on an Envision luminescence plate reader.

Data set [1] can be described thus: in vitro. Conditions: plasma, 37° C., up to 4 h. The format is in vitro ADME. The method, then: For plasma stability, the compounds were incubated at 2 μM in cynomolgus monkey or human plasma for up to 4 h at 37° C. At desired time points, an aliquot from the incubation was quenched by addition of 9 volumes of 100% acetonitrile supplemented with internal standard. Following the last collection, samples were centrifuged at 3000 g for 30 min and supernatants were transferred to a new plate containing an equal volume of water for analysis by liquid chromatography coupled to triple quadrupole mass spectrometry (LC-MS/MS). Data (analyte to internal standard peak area ratio) were plotted on a semi log scale and fitted using an exponential fit. The half-life (T1/2) was determined assuming first order kinetics.

The test system of the next data set is HCV replicon 2A. Description: HCV Rep 2A EC50. Type of data set: cell-based. The note with it: for EC50: Hepatitis C virus, 72 h, HCV replicon cells, 3 days. The method, then: (§1) Compounds were serially diluted in ten steps of 1:3 dilutions in 384-well plates. All serial dilutions were performed in four replicates per compound within the same 384-well plate. […] To each well of a black polystyrene 384-well plate (Greiner Bio-one, Monroe, NC), 90 μL of cell culture medium (without Geneticin) containing 2000 suspended HCV replicon cells was added with a Biotek μFlow workstation. For compound transfer into cell culture plates, 0.4 μL of compound solution from the compound serial dilution plate was transferred to the cell culture plate on a Biomek FX workstation. The DMSO concentration in the final assay wells was 0.44%. The plates were incubated for 3 days at 37° C. with 5% CO2 and 85% humidity. The HCV replicon assay was a multiplex assay, able to assess both cytotoxicity and antireplicon activity from the same well. The CC50 assay was performed first. The media in the 384-well cell culture plate was aspirated, and the wells were washed four times with 100 μL of PBS each, using a Biotek ELX405 plate washer. A volume of 50 μL of a solution containing 400 nM calcein AM (Anaspec, Fremont, CA) in 1×PBS was added to each well of the plate with a Biotek μFlow workstation. The plate was incubated for 30 min at room temperature before the fluorescence signal (excitation 490 nm, emission 520 nm) was measured with a Perkin-Elmer Envision plate reader. The EC50 assay was performed in the same wells as the CC50 assay. The calcein-PBS solution in the 384-well cell culture plate was aspirated with a Biotek ELX405 plate washer. A volume of 20 μL of Dual-Glo luciferase buffer (Promega, Madison, WI) was added to each well of the plate with a Biotek μFlow Workstation. The plate was incubated for 10 min at room temperature. […] The plate was then incubated at room temperature for 10 min before the luminescence signal was measured with a Perkin-Elmer Envision Plate Reader.

For the next data set, the system named is HCV replicon 1B. Description: HCV Rep 1B EC50. The format is cell-based. The note with it: for EC50: Hepatitis C virus, 72 h, HCV replicon cells, 3 days. The method, then: as §1
A further data set in a line: PHH cytotoxicity assay. Type of data set: cell-based. The note with it: human, fresh primary hepatocytes (PHH), daily replacement. How it is done: Three-fold serial dilutions of the compound of Formula I and compounds 1, 2 and 6 were prepared in duplicate in 96-well plates starting at a concentration of 50 or 100 μM. Fresh human hepatocytes were ordered in a 96-well plate format from BioIVT (Baltimore, Maryland, Cat #F/M91565) with a Matrigel overlay or Invitrogen (Durham, North Carolina, Cat #HMFY96) with a Geltrex overlay. Donor profiles were limited to 4-65-year old with minimal alcohol consumption. PHH cells were allowed to recover 4-24 hours in complete medium with added supplement supplied by the vendor at 37° C. in a 5% CO2 incubator with 90% humidity before treated with compounds. Serial-diluted compounds and complete medium were replaced (130 μL/well) daily for 5 days, with final amount of DMSO equal to 0.5%. On Day 5, medium was removed from the assay plates and cell viability was determined by the addition of 100 μL Cell-Titer Glo viability reagents (Promega, Madison, WI, Cat #G7573) added to each well. Following 5-10 minutes incubation at room temperature, luminescence signal was quantified on a Victor Luminescence plate reader (Perkin-Elmer, Waltham, MA).

The nature of data set [2]: in vitro. Type of data set: cell-based. Conditions: human, read-out: CC50 GALPC3. How it is done: Compounds were tested in a high-throughput 384-well assay format for cytotoxicity in galactose-adapted PC3 cells (human prostate cancer cell line). Cells were diluted in media (DMEM (11966), 10% FBS, 1% NEAA, 0.2% Galactose, 1% Pyruvate, 1% Glutamax, 1% PSG) to 16.6K cells/mL and plated at 90 uL/well into 384 well poly-D-lysine coated assay plates and placed in an incubator at 37° C. and 5% CO2. Compounds were serially diluted (1:3) in 100% DMSO in 384-well plates in quadruplicate. DMSO and 2 mM Puromycin were included as negative and positive controls respectively. 24 hours after cell plating, a 384 channel pipettor was used to transfer 0.4 uL from the compound plate to the assay plate. Assay plates are returned to the incubator. After 5 days, assay plates are washed with 80 uL/well of PBS before addition of 20 μL of Cell Titer Glo. Assay plates are read on the Envision plate reader. […] CC50 values were calculated in Accord (on-line tool) using a one-site dose-response model to generate sigmoidal curve fits.

[3] abbreviates: human, read-out: Hum Plasma t1/2.
[4] abbreviates: cynomolgus monkey, read-out: Cyno Plasma t1/2.

In the data set on RSV A2, `CCOC(=O)[C@H](C)NP(=O)(OC[C@@]1(C#N)O[C@@H](c2ccc3c(N)ncnn23)[C@H](O)[C@@H]1O)Oc1ccccc1` (stereo partly drawn) [Compound 1, reference compound] showed an EC50 of 549 nM. In addition, the half-life at 2 μM in the data set “in vitro [1]” (setting [3]) was 11.1 h.

With `CCC(CC)COC(=O)[C@H](C)NP(=O)(OC[C@@]1(C#N)O[C@@H](c2ccc3c(N)ncnn23)[C@H](O)[C@@H]1O)Oc1ccccc1` (stereo partly drawn) [Compound 2, reference compound], the EC50 with RSV A2 worked out at 75 nM; in the data set on HCV replicon 2A, 1830 nM; in the data set with HCV replicon 1B, 2780 nM. Besides, the half-life at 2 μM in the data set “in vitro [1]” (setting [4]) amounted to 4.82 h; in the data set “in vitro [1]” (setting [3]) it was 2.53 h.

As to `CCC(CC)COC(=O)[C@H](C)N[P@](=O)(OC[C@@]1(C#N)O[C@@H](c2ccc3c(N)ncnn23)[C@H](O)[C@@H]1O)Oc1ccccc1` [Compound 6, 2-ethylbutyl ((S)-(((2R,3S,4R,5S)-5-(4-aminopyrrolo[2,1-f][1,2,4]triazin-7-yl)-2-cyano-3,4-dihydroxytetrahydrofuran-2-yl)methoxy)(phenoxy)phosphoryl)alaninate], the “times as potent as compound 7, RSV NHBE” value with RSV A2 (EC50 ratio vs compound 7) turned out to be 0.7 times. Besides, in the data set with RSV A2, the EC50 was found to be 127 nM. Also, the half-life at 2 μM in “in vitro [1]” (setting [4]) came out at 4.28 h; in “in vitro [1]” (setting [3]) it was 2.18 h. The CC50 at 5 days in “PHH cytotoxicity assay” is 14100 nM; in the data set “in vitro [2]”, greater than 83500 nM.

`C[C@H](N[P@](=O)(OC[C@@]1(C#N)O[C@@H](c2ccc3c(N)ncnn23)[C@H](O)[C@@H]1O)Oc1ccccc1)C(=O)OC1CCCCC1` [Formula I, cyclohexyl ((S)-(((2R,3S,4R,5S)-5-(4-aminopyrrolo[2,1-f][1,2,4]triazin-7-yl)-2-cyano-3,4-dihydroxytetrahydrofuran-2-yl)methoxy)(phenoxy)phosphoryl)-L-alaninate]: the “more potent than the compound of Formula Ib, RSV NHBE” value in the data set with RSV A2 (EC50 ratio vs Formula Ib) worked out at 5.1. Besides, the “more potent relative to compound 1, RSV NHBE” value in the data set with RSV A2 (EC50 ratio vs compound 1) is roughly 4.4. The “times more potent relative to compound 3, RSV NHBE” value with RSV A2 (EC50 ratio vs compound 3) is “about 9.3 times”. For the same compound, in the data set on RSV A2 (EC50 ratio vs compound 4), the “times more potent relative to compound 4, RSV NHBE” value is “about 7.1 times”. Besides, the “times more potent relative to compound 5, RSV NHBE” value in the data set on RSV A2 (EC50 ratio vs compound 5) was “about 10.0 times”. For the same compound, the values for the EC50 in the data set on RSV A2, with HCV replicon 2A and with HCV replicon 1B were 124 nM, 1270 nM and 793 nM, respectively. Also, the half-life at 2 μM in the data set “in vitro [1]” (setting [4]) is 7.4 h; in the data set “in vitro [1]” (setting [3]), 8.05 h. In addition, in the data set on HCV replicon 2A (EC50 ratio vs compound 2), the “times more potent relative to compound 2, HCV Rep 2A” value is reported as roughly 1.4 times. In addition, the 50% cytotoxic concentration (CC50) at 5 days in “PHH cytotoxicity assay” was 21200 nM; in “in vitro [2]”, greater than 44400 nM. For the same compound, the “times more potent relative to compound 2, HCV Rep 1B” value in the data set with HCV replicon 1B (EC50 ratio vs compound 2) is “about 3.5 times”.
